# Source: PMC8673317 (Journal of medicinal chemistry, 2021)
# “Also recorded” adds a separate entry of the source. Counter-ions that a name gives are not always drawn.
# How the values were obtained:
# 129Sv6 mice [1] = experiment: Radiant heat tail flick antinociception; type: in vivo, mouse; details: for opioid receptor dependence of antinociception (MOR, DOR, KOR KO mice): 129Sv6 (and C57BL/6J) KO mice, KAE 100 mg/kg po in 129Sv6; for effect of naloxone on antinociception: naloxone 1 mg/kg sc 15 min before drug; for antinociceptive activity in the tail-flick assay at doses as high as 100 mg/kg: alkaloid 2 po and sc, 9OH sc
# C57BL/6J mice [2] = experiment: Lethality; type: in vivo, mouse
# MOR KO mice [3] = experiment: Lethality; type: in vivo, mouse
# [4] = system: 318 non-olfactory GPCRs (opioid receptors); experiment: PRESTO-Tango GPCRome β-arrestin2 recruitment screen; type: cell-based, human; details: 10 μM
# BB3 = target: T1, BB3 (Homo sapiens, UniProt P32247); experiment: PRESTO-Tango concentration-response; type: cell-based
# T1 sequence (P32247 1-399): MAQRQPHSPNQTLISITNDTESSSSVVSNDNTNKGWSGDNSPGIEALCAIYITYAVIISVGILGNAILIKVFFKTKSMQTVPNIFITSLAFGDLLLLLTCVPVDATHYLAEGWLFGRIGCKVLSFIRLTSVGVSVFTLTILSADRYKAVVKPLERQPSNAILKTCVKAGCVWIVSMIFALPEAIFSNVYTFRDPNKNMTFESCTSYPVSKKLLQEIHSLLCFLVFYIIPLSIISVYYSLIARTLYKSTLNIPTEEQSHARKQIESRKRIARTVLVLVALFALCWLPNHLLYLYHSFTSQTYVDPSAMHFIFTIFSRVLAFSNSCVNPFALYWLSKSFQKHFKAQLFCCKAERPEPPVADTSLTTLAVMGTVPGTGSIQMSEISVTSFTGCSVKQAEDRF
# CXCR7 = CXCR7 (Homo sapiens, UniProt P25106); experiment: PRESTO-Tango concentration-response; type: cell-based
# Sequence of CXCR7 (P25106 whole entry): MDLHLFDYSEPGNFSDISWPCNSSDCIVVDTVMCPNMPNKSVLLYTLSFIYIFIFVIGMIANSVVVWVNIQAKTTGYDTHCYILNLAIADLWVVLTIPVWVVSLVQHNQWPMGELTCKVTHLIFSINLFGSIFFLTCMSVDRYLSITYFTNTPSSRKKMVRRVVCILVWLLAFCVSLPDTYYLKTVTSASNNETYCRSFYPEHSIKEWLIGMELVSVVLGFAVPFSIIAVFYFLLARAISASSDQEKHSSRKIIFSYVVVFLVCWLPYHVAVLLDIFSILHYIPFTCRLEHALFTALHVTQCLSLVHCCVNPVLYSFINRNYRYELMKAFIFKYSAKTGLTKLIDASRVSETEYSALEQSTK
# CCR3 = target: T2, CCR3 (Homo sapiens, UniProt P51677); experiment: PRESTO-Tango concentration-response; type: cell-based
# T2 sequence (P51677 1-355): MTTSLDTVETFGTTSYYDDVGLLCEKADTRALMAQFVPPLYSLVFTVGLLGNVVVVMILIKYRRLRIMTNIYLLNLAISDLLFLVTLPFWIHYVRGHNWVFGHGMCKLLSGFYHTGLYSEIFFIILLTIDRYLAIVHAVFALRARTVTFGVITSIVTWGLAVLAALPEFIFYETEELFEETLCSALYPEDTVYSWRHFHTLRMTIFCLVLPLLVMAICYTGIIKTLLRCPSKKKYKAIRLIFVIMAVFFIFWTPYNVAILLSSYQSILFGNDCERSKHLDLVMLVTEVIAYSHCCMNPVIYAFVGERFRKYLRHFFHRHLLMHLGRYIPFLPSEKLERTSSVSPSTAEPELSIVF
# mMOR [5] = target: T3, mMOR (Mus musculus, UniProt P42866); experiment: [35S]GTPγS functional assay in membranes of transfected cells; details: read-out: [35S]GTPγS mMOR %Emax
# T3 sequence (P42866 whole entry): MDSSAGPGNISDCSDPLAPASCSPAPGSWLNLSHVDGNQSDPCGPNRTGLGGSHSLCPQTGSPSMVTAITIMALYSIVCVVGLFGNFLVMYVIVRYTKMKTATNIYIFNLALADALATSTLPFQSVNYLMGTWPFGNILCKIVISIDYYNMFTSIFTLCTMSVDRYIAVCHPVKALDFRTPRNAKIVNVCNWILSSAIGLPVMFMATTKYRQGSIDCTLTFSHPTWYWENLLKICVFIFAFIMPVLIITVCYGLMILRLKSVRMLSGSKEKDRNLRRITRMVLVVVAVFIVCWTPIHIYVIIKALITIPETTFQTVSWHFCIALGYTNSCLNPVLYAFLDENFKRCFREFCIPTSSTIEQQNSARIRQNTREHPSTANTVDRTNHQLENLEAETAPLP
# C57BL/6J mice [6] = experiment: 55 °C warm-water tail-withdrawal; type: in vivo, mouse
# MOR KO mice [7] = experiment: Antagonism of icv KOR/DOR agonist antinociception; type: in vivo, mouse; details: MP 30 mg/kg sc
# mMOR [8] = target: T3, mMOR; details: read-out: [35S]GTPγS mMOR EC50; agonist stimulation, ± SEM; cited from earlier work
# mKOR [9] = target: T4, mKOR (Mus musculus, UniProt P33534); details: agonist stimulation, ± SEM; cited from earlier work
# T4 sequence (P33534 whole entry): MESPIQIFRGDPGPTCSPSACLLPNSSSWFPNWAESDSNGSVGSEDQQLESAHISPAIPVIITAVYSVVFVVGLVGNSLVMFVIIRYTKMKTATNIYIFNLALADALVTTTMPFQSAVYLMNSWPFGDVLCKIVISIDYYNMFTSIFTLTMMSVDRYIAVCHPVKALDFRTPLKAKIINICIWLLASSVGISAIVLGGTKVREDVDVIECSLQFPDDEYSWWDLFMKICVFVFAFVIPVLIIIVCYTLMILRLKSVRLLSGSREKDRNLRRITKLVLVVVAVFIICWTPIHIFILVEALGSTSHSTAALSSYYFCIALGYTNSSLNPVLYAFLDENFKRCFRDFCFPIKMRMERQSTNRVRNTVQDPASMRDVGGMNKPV
# C57BL/6J mice [10] = details: MP 0.76, 1.5, 4 mg/kg sc; Figure 2L reprinted; listed as MP; cited from earlier work
# [11] = Pharmacokinetic study, plasma and brain levels by LC-MS/MS
# mDOR = mDOR (Mus musculus, UniProt P32300); experiment: [35S]GTPγS functional assay in membranes of transfected cells; details: antagonism of 100 nM agonist
# Sequence of mDOR (P32300 whole entry): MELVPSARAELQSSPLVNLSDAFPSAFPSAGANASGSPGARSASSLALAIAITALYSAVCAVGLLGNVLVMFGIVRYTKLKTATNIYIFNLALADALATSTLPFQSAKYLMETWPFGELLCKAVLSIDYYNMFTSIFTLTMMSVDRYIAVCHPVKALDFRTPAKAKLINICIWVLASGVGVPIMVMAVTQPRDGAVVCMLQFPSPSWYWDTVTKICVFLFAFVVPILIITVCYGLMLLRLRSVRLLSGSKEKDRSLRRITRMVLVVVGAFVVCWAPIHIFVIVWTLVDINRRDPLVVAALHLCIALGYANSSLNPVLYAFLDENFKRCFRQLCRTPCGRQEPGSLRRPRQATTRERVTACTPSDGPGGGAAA
# CD1 mice = details: cited from earlier work
# humans = details: cited from earlier work
# C57BL/6J mice [12] = experiment: Conditioned place preference and aversion; type: in vivo, mouse; details: alkaloid extract 100 mg/kg/d po, mitragynine 30 mg/kg/d po, 7OH 1 mg/kg/d sc
# C57BL/6J mice [13] = experiment: Locomotor; type: in vivo, mouse; details: KAE 45 mg/kg po, mitragynine 20 mg/kg po, 7OH 1 mg/kg sc, MP […] sc
# Lethality = type: in vivo, mouse; details: 129Sv6, mouse, in vivo, po
# 129Sv6 mice [14] = experiment: Lethality; type: in vivo, mouse; details: from rodent oral LD50
# [15] = Stability in pH 7.4 buffer; type: physicochemical
# [16] = pH 7.4
# mice = details: po; cited from earlier work
# rats = details: intravenous (iv) route; cited from earlier work
# [17] = Pharmacokinetic study, plasma and brain levels by LC-MS/MS; remark: listed apart in the source
# mKOR [18] = target: T4, mKOR; experiment: [35S]GTPγS functional assay in membranes of transfected cells; details: relative to U50, 488H
# [19] = C57BL/6J, mitragynine 30 mg/kg po
smiles,measurement,setting,value
"CC[C@@H]1C[N+]2=C(C[C@@H]1/C(=C\OC)C(=O)OC)c1[nH]c3cccc(OC)c3c1CC2 [3-dehydromitragynine, (2S,3S)-2-((E)-1,3-Dimethoxy-3-oxoprop-1-en-2-yl)-3-ethyl-8-methoxy-2,3,4,6,7,12-hexahydro-1H-indolo[2,3-a]quinolizin-5-ium TFA Salt]",antinociception in mice (in words),129Sv6 mice [1]; administered directly,not antinociceptive
same,lethality,"C57BL/6J mice [2]; 50 mg/kg, sc",100%
same,lethality in the presence of KOR antagonist (nor-BNI) and DOR antagonist (NTI),"C57BL/6J mice [2]; 3DM 50 mg/kg sc, norBNI 10 mg/kg sc 24 h, NTI 20 mg/kg sc 15 min pretreatment",lethality was still observed
same,lethality,"MOR KO mice [3]; 50 mg/kg, sc",100%
same,"increase in luminescence signal, fold of basal, at opioid receptors",[4],> 3 fold of basal
same,off-target activity (in words),[4]; Table 1 and Figure 6B,no other notable off–target activity beyond opioid receptors
same,activity at BB3 (in words),BB3,Poor (μM) activity
same,activity at CXCR7 (in words),CXCR7,Poor (μM) activity
same,activity at CCR3 (in words),CCR3,Poor (μM) activity
same,Emax,mMOR [5],44 ± 1%
CC[C@@H]1CN2CC[C@]3(Nc4cccc(OC)c4C3=O)[C@@H]2C[C@@H]1/C(=C\OC)C(=O)OC [mitragynine pseudoindoxyl],"opioid receptor dependence of antinociception (MOR, DOR, KOR KO mice)",129Sv6 mice [1],"mediated through MOR, independent of DOR/KOR"
same,more antinociceptive potency than mitragynine (sc),"129Sv6 mice [1]; 129Sv6 mice, sc",> 100 fold
same,effect of naloxone on antinociception,129Sv6 mice [1],naloxone-sensitive
same,antinociceptive potency over sc morphine,"C57BL/6J mice [6]; C57BL/6J, sc",about 10 fold
same,ED50,"C57BL/6J mice [6]; Mus musculus, sc, read-out: antinociceptive ED50 (95% CI), sc",0.26 mg/kg
same,antinociceptive potency relative to morphine,"C57BL/6J mice [6]; sc, C57BL/6J and 129Sv6 strains",2–10 fold
same,antagonism of icv SNC 80 antinociception,MOR KO mice [7]; SNC 80 100 nmol icv,antagonized
same,"antagonism of icv U50, 488H antinociception","MOR KO mice [7]; U50, 488H 100 nmol icv",antagonized
same,EC50,mMOR [8],1.66 ± 0.1 nM
same,[35S]GTPγS mKOR EC50,mKOR [9],no activity
same,inhibition of GI transit (in words),C57BL/6J mice [10],showed constipation at all doses
same,level in plasma and brain at 8 h,[11]; [19],no quantifiable
same,concentration at 20 min,"[11]; C57BL/6J, mouse, plasma, sc",0.41 ± 0.12 µM
"CC[C@@H]1CN2CCc3c([nH]c4cccc(O)c34)[C@@H]2C[C@@H]1/C(=C\OC)C(=O)OC [9-hydroxy corynanthedine, 9-hydroxycorynantheidine]",[35S]GTPγS mDOR IC50,mDOR,no activity
CN1CC[C@]23c4c5ccc(O)c4O[C@H]2[C@@H](O)C=C[C@H]3[C@H]1C5 [morphine],"antinociceptive ED50 (95% CI), po","129Sv6 mice [1]; 129Sv6 mice, po, at peak effect",3.32 (2.08–5.32) mg/kg
same,antinociceptive ED50,CD1 mice,5 mg/kg
same,potency intravenously versus orally,humans,~ 3 fold
"CC[C@@H]1CN2CCc3c([nH]c4cccc(O[C@@H]5O[C@H](C(=O)O)[C@@H](O)[C@H](O)[C@H]5O)c34)[C@@H]2C[C@@H]1/C(=C\OC)C(=O)OC [9-glucuronoyl mitragynine, (2S,3S,5R,6S)-6-(((2S,3S)-2-((E)-1,3-Dimethoxy-3-oxoprop-1-en-2-yl)-3-ethyl-1,2,3,4,6,7,12,12b-octahydroindolo[2,3-a]quinolizin-8-yl)oxy)-3,4,5-trihydroxytetrahydro-2H-pyran-2-carboxylic Acid]",[35S]GTPγS mDOR IC50,mDOR,no activity
CC[C@@H]1CN2CCc3c([nH]c4cccc(OC)c34)[C@@H]2C[C@@H]1/C(=C\OC)C(=O)OC [mitragynine],"opioid receptor dependence of antinociception (MOR, DOR, KOR KO mice)",129Sv6 mice [1],mediated by MOR (but not DOR and KOR)
same,effect of naloxone on antinociception,129Sv6 mice [1],reversed
same,time to peak antinociceptive effect,"C57BL/6J mice [6]; both strains (C57BL/6J, 129Sv6), po and sc",15 to 20 min
same,conditioned place preference (CPP/CPA),C57BL/6J mice [12],displayed CPP; also recorded: produced reward behavior
same,hyperlocomotion compared to morphine,C57BL/6J mice [13],attenuated
same,LD50,Lethality,750 mg/kg
same,"oral LD50 corrected by standard allometric scaling, amount in an adult human",129Sv6 mice [14],> 2.5 g
same,lethality,"C57BL/6J mice [2]; 1 g/kg, po, data not shown",100%
same,lethality (in words),"MOR KO mice [3]; 1 g/kg po, C57BL/6J or MOR KO mice",death of all animals
same,stability in D2O,"[15]; 1H NMR at 1, 5, 10, 24 h, room temperature",stable
same,stability in pH 7.4 buffer,"[15]; LC/MS at 1, 5, 10 and 24 h",very stable
same,increase of half-life in microsomes in the presence of ketoconazole,[16],~ 5 fold
same,[35S]GTPγS mKOR EC50,mKOR [9],no activity
same,reported LD50,mice,477 mg/kg
same,self-administration,rats,not self-administered
same,level in plasma and brain at 24 h,[11]; [19],below detection limits
same,brain concentration of intact mitragynine,"[11]; C57BL/6J, po, ED80 dose (30 mg/kg)",6.63 ± 0.67 µM
same,brain concentration,"[11]; C57BL/6J, sc 30 mg/kg",9.74 ± 3.05 µM
same,brain concentration greater than MOR agonist potency,"[11]; po ED80 dose, C57BL/6J and 129Sv6",30-to-60 fold
same,brain concentration of intact mitragynine,"[17]; 129Sv6, po, ED80 dose (10 mg/kg)",12.22 ± 3.4 µM
same,brain concentration,"[17]; 129Sv6, sc 10 mg/kg",30.06 ± 8.12 µM
"C=C[C@H]1CN2CCc3c([nH]c4cccc(OC)c34)[C@@H]2C[C@@H]1/C(=C\OC)C(=O)OC [paynanthine, paynantheine]",antinociceptive activity in the tail-flick assay at doses as high as 100 mg/kg,129Sv6 mice [1]; 129Sv6 mice,inactive
CC[C@H]1CN2CCc3c([nH]c4cccc(OC)c34)[C@@H]2C[C@@H]1/C(=C\OC)C(=O)OC [speciogynine],antinociceptive activity in the tail-flick assay at doses as high as 100 mg/kg,129Sv6 mice [1]; 129Sv6 mice,inactive
same,[35S]GTPγS mKOR %Emax,mKOR [18],no activity
